Where two headings read alike, the source gives them in different places.
What was measured:
[1] = test system: conscious rats with partial urethral obstruction; assay: Cystometry in conscious rats obstructed by partial urethra ligature (unstable-bladder contractions); assay type: in vivo, rat; conditions: for inhibition in vivo at 0.3 mg/kg / inhibition in vivo at 1 mg/kg / inhibition in vivo at 0.1 mg/kg: 2 min; for Amplitude of non-effective micturition contractions, After Treat. / Frequency (number) of non-effective micturition contractions, After Treat.: after treatment; for Activity as inhibitors of unstable-bladder contractions (in words): obstructed conscious rats, summary of Tables 1 and 2
Text: A useful animal model system for measuring such pharmacological activity is, without limitation, cystometry in conscious rats with partial bladder-neck obstruction. […] This model is reported in the literature as related to LUTS occurring in patients having obstructive urethral syndromes (Michel, 2000, Drugs of Today. 386 (Supp. B2): 3-6)
In order to obtain a partial obstruction of the urethra, the method previously reported by Malgren (Nalgren et al., 1987, J. Urol. 137:1291-1294; 1988, Neurourol. Urodyn. 6:371), was followed with minor modifications (Guarneri et al., 1991, Pharmacol. Res. 24:263).
Female rats of the Sprague-Dawley strain [Crl:CD(SD)BR, from Charles River Italia, Calco, Como, Italy] weighing 225-275 g were used. The animals were maintained in constant temperature and humidity conditions, on a forced 12-hour light-dark cycle and with food and water ad libitum for at least one week before the experiment.
After being anaesthetized with 3 ml/kg i.p. equitensin (pentobarbital 1.215 g, chloral hydrate 5.312 g, magnesium sulphate 2.657 g, ethanol 12.5 ml, propylene glycol 49.5 ml, distilled water to 125 ml of final volume), the rats were placed in a supine position and the bladder and urethra were exposed via an incision in the shaven abdomens and gently pulling away the muscle portion. The urethra was cannulated with a polyethylene tube with an outside diameter of 1.22 mm, and the urinary bladder was then emptied and, via the cannula introduced through the urethra, filled with physiological saline. A silk (Ethicon 3/0) ligature was placed around the urethra with the cannula inside and the intraurethral cannula was then removed. The abdominal incision was sutured and, immediately after the operative procedure, antibiotic medication (penicillin G 200 000 I.U./kg i.p. and streptomycin 260 mg/kg i.p.) was performed.
Three weeks after the procedure for partially obstructing the urethra, the animals were prepared for cystometry by surgical insertion into the bladder of a catheter, through which the bladder was gradually filled.
The rats, anaesthetised with equitensin 3 ml/kg i.p., were placed in a supine position and, via an incision of about 10 mm in the abdominal wall, the urinary bladder was exposed and gently freed from surrounding tissues.
The urinary bladder was emptied manually and cannulated, via a small incision at the bladder top, with a polyethylene cannula (type PE-50, 0.58 mm I.D. ×0.96 mm O.D.), which was permanently secured to the bladder with silk thread.
The cannula was exposed through a subcutaneous tunnel in the retroscapular area, where it was fastened with a plastic adapter, in order to avoid the risk of removal by the animal. After washing the urinary bladder with physiological saline, the catheter was sealed using a small flame and the abdominal incision was sutured.
To allow evaluation of the effect of a test compound after intravenous administration, the jugular vein was cannulated with a polyethylene cannula (type PE-50, 0.58 mm I.D.×0.96 mm O.D.) filled with heparinised physiological saline. As for the bladder catheter, this cannula, too, was exteriorised, secured and sealed in the retroscapular area.
Two days after the operation, the rats, fasted overnight, were placed in Bollman's cages or in Bollman's cages modified so as to have an opening in the bottom to allow collection of urinated fluid.
After an adaptation period of 20 minutes, the free end of the bladder cannula was connected to a pressure transducer and a special apparatus which allowed infusion into the urinary bladder of physiological saline at 37° C. at a constant rate of 10 ml/hour. Intravesical pressure changes caused by bladder filling were recorded by the pressure transducer which was connected to a recording polygraph.
From the cystometrograms, the frequency and mean amplitude of spontaneous bladder contractions not inducing micturition, termed “unstable-bladder contractions” (UBC), within 2 minutes prior to micturition were evaluated. […]

[2] = biological target: T1, cloned α1a-adrenoceptor subtype (Homo sapiens, UniProt P35348); assay: Radioligand binding assay ([3H]prazosin), cloned α1a-adrenoceptor subtype; conditions: read-out: Binding Affinity (Ki nM) α1a
T1 construct: expressed in transfected cells
T1 sequence (P35348 1-466): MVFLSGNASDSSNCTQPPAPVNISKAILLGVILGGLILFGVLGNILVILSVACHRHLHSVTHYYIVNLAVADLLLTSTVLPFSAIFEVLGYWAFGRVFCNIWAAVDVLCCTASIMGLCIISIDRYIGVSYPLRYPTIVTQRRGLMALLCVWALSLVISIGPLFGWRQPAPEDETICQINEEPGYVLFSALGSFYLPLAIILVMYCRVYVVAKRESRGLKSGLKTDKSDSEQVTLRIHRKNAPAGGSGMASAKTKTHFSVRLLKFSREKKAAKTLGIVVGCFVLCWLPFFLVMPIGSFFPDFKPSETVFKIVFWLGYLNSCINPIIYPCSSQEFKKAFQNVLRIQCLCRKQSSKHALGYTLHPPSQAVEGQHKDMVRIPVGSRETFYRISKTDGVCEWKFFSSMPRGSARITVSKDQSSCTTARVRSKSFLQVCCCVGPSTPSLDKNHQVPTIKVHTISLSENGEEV
Procedure: (§1) Springer-Verlag, pp. 10-12). […] The results from these assays are used to calculate a measure of receptor selectivity, expressed as the ratio of affinities (Ki) for a given pair of receptors.
(§2) Determination of affinity for cloned subtypes of α1-adrenoceptor subtypes was performed in membranes from cells transfected by electroporation with DNA expressing the genes encoding each α1-adrenoceptor subtype.
(§3) Non-specific binding was determined in the presence of 10 μM phentolamine. Incubation was stopped by addition of ice-cold Tris buffer and rapid filtration through 0.2% polyethyleneimine-pretreated Schleicher & Schuell GF52 filters. […] Data were expressed as mean Ki.

[3] = biological target: T2, cloned α1d-adrenoceptor subtype (Homo sapiens, UniProt P25100); assay: Radioligand binding assay ([3H]prazosin), cloned α1d-adrenoceptor subtype; conditions: read-out: Binding Affinity (Ki nM) α1d
T2 construct: expressed in transfected cells
T2 sequence (P25100 1-572): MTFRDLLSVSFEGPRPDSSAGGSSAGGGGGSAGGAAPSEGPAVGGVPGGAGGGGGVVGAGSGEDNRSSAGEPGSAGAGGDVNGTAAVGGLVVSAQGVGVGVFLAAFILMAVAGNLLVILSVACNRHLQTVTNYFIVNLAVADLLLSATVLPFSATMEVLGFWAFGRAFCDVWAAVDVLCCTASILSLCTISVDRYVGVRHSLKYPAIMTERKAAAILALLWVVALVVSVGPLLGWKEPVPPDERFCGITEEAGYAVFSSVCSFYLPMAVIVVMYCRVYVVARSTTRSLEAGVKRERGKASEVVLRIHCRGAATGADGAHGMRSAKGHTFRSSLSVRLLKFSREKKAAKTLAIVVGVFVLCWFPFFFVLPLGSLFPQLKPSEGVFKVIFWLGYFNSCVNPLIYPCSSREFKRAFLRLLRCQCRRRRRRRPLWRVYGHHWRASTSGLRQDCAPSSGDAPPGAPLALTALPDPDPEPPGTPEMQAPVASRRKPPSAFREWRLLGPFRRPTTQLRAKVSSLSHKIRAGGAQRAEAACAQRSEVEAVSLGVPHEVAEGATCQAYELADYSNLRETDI
Procedure: as §1, §2, §3

[4] = biological target: T3, cloned α1b-adrenoceptor subtype (Homo sapiens, UniProt P35368); assay: Radioligand binding assay ([3H]prazosin), cloned α1b-adrenoceptor subtype; conditions: read-out: Binding Affinity (Ki nM) α1b
T3 construct: expressed in transfected cells
T3 sequence (P35368 1-520): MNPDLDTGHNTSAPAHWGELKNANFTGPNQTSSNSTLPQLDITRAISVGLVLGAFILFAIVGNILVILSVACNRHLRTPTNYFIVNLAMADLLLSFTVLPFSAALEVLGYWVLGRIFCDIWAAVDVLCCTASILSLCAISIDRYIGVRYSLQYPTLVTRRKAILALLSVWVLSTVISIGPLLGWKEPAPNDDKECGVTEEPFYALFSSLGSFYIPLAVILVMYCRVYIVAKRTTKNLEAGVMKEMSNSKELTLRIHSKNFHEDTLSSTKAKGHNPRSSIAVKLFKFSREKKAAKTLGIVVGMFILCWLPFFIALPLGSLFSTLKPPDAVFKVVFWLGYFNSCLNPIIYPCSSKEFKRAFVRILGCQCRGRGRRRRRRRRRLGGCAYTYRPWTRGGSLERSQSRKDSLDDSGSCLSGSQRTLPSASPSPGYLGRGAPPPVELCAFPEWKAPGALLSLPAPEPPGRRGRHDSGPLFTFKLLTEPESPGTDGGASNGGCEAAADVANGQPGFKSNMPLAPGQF
Procedure: as §1, §2, §3

[5] = obstructed rat, 0.3 mg/kg, 2 minutes before micturition, read-out: % inhibition of frequency of non-effective micturition contractions
[6] = obstructed rat, 2 minutes before micturition, read-out: % inhibition of frequency of non-effective micturition contractions
[7] = Rattus norvegicus, read-out: % inhibition of amplitude of non-effective micturition contractions
[8] = Rattus norvegicus, read-out: % inhibition of frequency of non-effective micturition contractions
[9] = obstructed rat, 0.3 mg/kg, 2 minutes before micturition, read-out: % inhibition of amplitude of non-effective micturition contractions
[10] = obstructed rat, 2 minutes before micturition, read-out: % inhibition of amplitude of non-effective micturition contractions
[11] = obstructed rat, 0.1 mg/kg, 2 minutes before micturition, read-out: % inhibition of amplitude of non-effective micturition contractions
[12] = obstructed rat, 0.1 mg/kg, 2 minutes before micturition, read-out: % inhibition of frequency of non-effective micturition contractions

COc1ccccc1N1CCN(CCCNC(=O)c2csc3c(=O)cc(C(F)(F)F)oc23)CC1 [Compound A, N-{3-[4-(2-methoxyphenyl)-1-piperazinyl]propyl}-7-keto-5-trifluoromethyl-7H-thieno [3,2-b]pyran-3-carboxamide]
inhibition in vivo at 0.3 mg/kg [1, 5]: 44%
inhibition in vivo at 1 mg/kg [1, 6]: 67%

Cc1onc(-c2ccccc2)c1C(=O)NCCCN1CCN(c2cc(F)ccc2OCC(F)(F)F)CC1 [Compound C, N-{3-[4-[5-fluoro-2-(2,2,2-trifluoroethoxy)phenyl]-1-piperazinyl]propyl}-3-phenyl-5-methylisoxazole-4-carboxamide]
Ki [2]: 0.05 nM
Ki [3]: 0.33 nM

COc1cc2nc(N3CCN(C(=O)c4ccco4)CC3)nc(N)c2cc1OC [Prazosin, prazosin]
inhibition in vivo at 0.1 mg/kg [1, 7]: 63%
inhibition in vivo at 0.3 mg/kg [1, 7]: 87%
inhibition in vivo at 0.1 mg/kg [1, 8]: 48%
inhibition in vivo at 0.3 mg/kg [1, 8]: 74%
Amplitude of non-effective micturition contractions, After Treat. ([1]; 0.1 mg/kg): 3.1 ± 0.9 mmHg
Frequency (number) of non-effective micturition contractions, After Treat. ([1]; 0.1 mg/kg): 2.8 ± 0.8
Amplitude of non-effective micturition contractions, After Treat. ([1]; 0.3 mg/kg): 2.1 ± 1.5 mmHg
Frequency (number) of non-effective micturition contractions, After Treat. ([1]; 0.3 mg/kg): 2.3 ± 1.1
Activity as inhibitors of unstable-bladder contractions (in words) [1]: marked and dose-dependent reduction

O=C1CC2(CCCC2)CC(=O)N1CCN1CCN(c2cc(Cl)ccc2Cl)CC1 [Rec 26D/038]
Ki [4]: 19 nM
inhibition in vivo at 0.3 mg/kg [1, 9]: 39%
inhibition in vivo at 0.3 mg/kg [1, 5]: 38%
inhibition in vivo at 1 mg/kg [1, 10]: 21%
inhibition in vivo at 1 mg/kg [1, 6]: 27%
Amplitude of non-effective micturition contractions, After Treat. ([1]; 0.3 mg/kg): 6.6 ± 1.5 mmHg
Frequency (number) of non-effective micturition contractions, After Treat. ([1]; 0.3 mg/kg): 3.6 ± 0.7
Amplitude of non-effective micturition contractions, After Treat. ([1]; 1.0 mg/kg): 7.5 ± 1.6 mmHg
Frequency (number) of non-effective micturition contractions, After Treat. ([1]; 1.0 mg/kg): 4.5 ± 1.2
Activity as inhibitors of unstable-bladder contractions (in words) [1]: poorly active
Ki [3]: 0.13 nM

O=C1CC2(CCCC2)CCN1CCN1CCN(c2cc(Cl)ccc2Cl)CC1 [Rec 26D/073]
Ki [4]: 11 nM
inhibition in vivo at 0.3 mg/kg [1, 9]: 16%
inhibition in vivo at 0.3 mg/kg [1, 5]: 31%
inhibition in vivo at 1 mg/kg [1, 10]: 18%
inhibition in vivo at 1 mg/kg [1, 6]: 25%
Amplitude of non-effective micturition contractions, After Treat. ([1]; 0.3 mg/kg): 6.2 ± 1.6 mmHg
Frequency (number) of non-effective micturition contractions, After Treat. ([1]; 0.3 mg/kg): 2.8 ± 0.7
Amplitude of non-effective micturition contractions, After Treat. ([1]; 1.0 mg/kg): 7.5 ± 1.2 mmHg
Frequency (number) of non-effective micturition contractions, After Treat. ([1]; 1.0 mg/kg): 4.4 ± 0.7
Activity as inhibitors of unstable-bladder contractions (in words) [1]: poorly active
Ki [3]: 0.11 nM

CCOc1ccccc1OCCN[C@H](C)Cc1ccc(OC)c(S(N)(=O)=O)c1 [Tamsulosin, tamsulosin]
Ki [4]: 0.94 nM
inhibition in vivo at 0.1 mg/kg [1, 11]: 52%
inhibition in vivo at 0.1 mg/kg [1, 12]: 61%
Amplitude of non-effective micturition contractions, After Treat. ([1]; 0.1 mg/kg): 3.7 ± 1.1 mmHg
Frequency (number) of non-effective micturition contractions, After Treat. ([1]; 0.1 mg/kg): 1.9 ± 0.7
Activity as inhibitors of unstable-bladder contractions (in words) [1]: very potent
Ki ([3]; cloned receptor, cell membranes, 0.2 nM [3H]prazosin, mean Ki): 0.16 nM

COc1cc2nc(N3CCN(C(=O)C4CCCO4)CC3)nc(N)c2cc1OC (stereo not shown) [Terazosin, terazosin]
inhibition in vivo at 0.1 mg/kg [1, 11]: 31%
inhibition in vivo at 0.1 mg/kg [1, 12]: 30%
inhibition in vivo at 0.3 mg/kg [1, 9]: 64%
inhibition in vivo at 0.3 mg/kg [1, 5]: 65%
inhibition in vivo at 1 mg/kg [1, 10]: 86%
inhibition in vivo at 1 mg/kg [1, 6]: 93%
Amplitude of non-effective micturition contractions, After Treat. ([1]; 0.1 mg/kg): 6.6 ± 0.7 mmHg
Frequency (number) of non-effective micturition contractions, After Treat. ([1]; 0.1 mg/kg): 4.0 ± 0.3
Amplitude of non-effective micturition contractions, After Treat. ([1]; 0.3 mg/kg): 3.7 ± 1.1 mmHg
Frequency (number) of non-effective micturition contractions, After Treat. ([1]; 0.3 mg/kg): 1.9 ± 0.5
Amplitude of non-effective micturition contractions, After Treat. ([1]; 1.0 mg/kg): 0.8 ± 0.8 mmHg
Frequency (number) of non-effective micturition contractions, After Treat. ([1]; 1.0 mg/kg): 0.3 ± 0.3
Activity as inhibitors of unstable-bladder contractions (in words) [1]: marked and dose-dependent reduction

Reference: patent US20020183290A1, “Adrenergic receptor antagonists selective for both alpha1A-and alpha1D-subtypes and uses therefor” (Recordati S.A., Chemical and Pharmaceutical Company, priority 2001, published 2002)
